Laboratory results published in patent US10196401B2, “Spiro-lactam NMDA receptor modulators and uses thereof” (Aptinyx Inc., priority 2016, dated 2019).

How the values were obtained:
[1] = test system: Sprague Dawley rats; assay: Blast-induced traumatic brain injury/cognitive deficits measured by PEL; format: in vivo, rat; details: 10 mg/kg PO 1 h post-blast; PEL 48 hours post-blast
Text: Single blast-induced traumatic brain injury/cognitive deficits were induced, modified for use in rats according to the protocol of Goldstein et al., “Chronic traumatic encephalopathy in blast-exposed military veterans and a blast neurotrauma mouse model,” Science Translational Medicine, Vol. 4, Issue 134, pp. 134ra60, 2012. Male 2-3 month old Sprague Dawley rats were used. Rats were housed in Lucite cages with aspen wood chip bedding, maintained on a 12:12 light:dark cycle (lights on at 5 AM), and given ad libitum access to Purina lab chow (USA) and tap water throughout the study. Rats were first anesthetized using 3.5-4% isoflurane, then the ears were protected with 1.5×1.5 mm foam plugs (Pura-Fit®, Moldex-Metric Inc., Culver City, Calif.), and the rat was placed into a head access rodent thoracic restrainer (Stoelting, USA) to protect the body while allowing the head to move freely. […]
PEL (Positive emotional learning) was conducted 48 hours post-blast. […] High frequency ultrasonic vocalizations (USVs) were recorded and analyzed by sonogram with Avasoft SASlab Pro (Germany) as previously described by Burgdorf et al., “Positive emotional learning is regulated in the medial prefrontal cortex by GluN2B-containing NMDA receptors,” Neuroscience, 192:515-523, 2011. Frequency raodulated 50-kH-z USVs that occurred during each the no-stimulation periods were quantified to measure PEL. […]

[2] = test system: rats; assay: Positive emotional learning (PEL) test, rat 50-kHz ultrasonic vocalizations (USVs); format: in vivo
Description: Experiments were conducted as described in Burgdorf et al., “The effect of selective breeding for differential rates of 50-kHz ultrasonic vocalizations on emotional behavior in rats,” Devel. Psychobiol., 51:34-46 (2009). Rat 50-kHz ultrasonic vocalization (hedonic USVs) is a validated model for the study of positive affective state and is best elicited by rough-and-tumble play.
The PEL assay measures the acquisition of positive (hedonic) 50-kHz ultrasonic vocalizations (USVs) to a social stimulus, heterospecific rough and tumble play stimulation. Heterospecific rough-and-tumble play stimulation was administered by the experimenter's right hand. […] High frequency ultrasonic vocalizations (USVs) were recorded and analyzed by sonogram with Avasoft SASlab Pro (Germany) as previously described by Burgdorf et al., “Positive emotional learning is regulated in the medial prefrontal cortex by GluN2B-containing NMDA receptors,” Neuroscience, 192:515-523 (2011). Frequency modulated 50-kHz USVs that occurred during each of the no-stimulation periods were quantified to measure PEL. […] Positive emotional learning was measured during the conditioned stimulus (CS) trials preceding the tickle unconditioned stimulus (UCS) trials. […] Running speed for animals to self administer tickling at the end of the 3 min session was also measured. […]

[3] = biological target: NMDAR2A (Homo sapiens, UniProt Q12879); assay: Potentiation of [3H]MK-801 binding, NMDAR2A; parameters: species or system rat; details: NMDAR2A binding profile, wild-type
[4] = biological target: NMDAR2B (Homo sapiens, UniProt Q13224); assay: Potentiation of [3H]MK-801 binding, NMDAR2B; parameters: species or system rat; details: for % 1 mM Glycine: relative to 1 mM glycine
[5] = Microsomal stability, human; format: in vitro ADME
Description: (§1) Microsomal and plasma stability of Compound A was investigated. The following table indicates the percent of Compound A remaining after 60 minutes.
(§2) Microsomal and plasma stability of Compound B was investigated. The following table indicates the percent of Compound B remaining after 60 minutes.

[6] = Plasma stability, human; format: in vitro ADME
Description: as §1, §2

[7] = Plasma stability, rat; format: in vitro ADME
Description: as §1, §2

Chain of NMDAR2B (Q13224 27-1484, species assumed, other chains not shown): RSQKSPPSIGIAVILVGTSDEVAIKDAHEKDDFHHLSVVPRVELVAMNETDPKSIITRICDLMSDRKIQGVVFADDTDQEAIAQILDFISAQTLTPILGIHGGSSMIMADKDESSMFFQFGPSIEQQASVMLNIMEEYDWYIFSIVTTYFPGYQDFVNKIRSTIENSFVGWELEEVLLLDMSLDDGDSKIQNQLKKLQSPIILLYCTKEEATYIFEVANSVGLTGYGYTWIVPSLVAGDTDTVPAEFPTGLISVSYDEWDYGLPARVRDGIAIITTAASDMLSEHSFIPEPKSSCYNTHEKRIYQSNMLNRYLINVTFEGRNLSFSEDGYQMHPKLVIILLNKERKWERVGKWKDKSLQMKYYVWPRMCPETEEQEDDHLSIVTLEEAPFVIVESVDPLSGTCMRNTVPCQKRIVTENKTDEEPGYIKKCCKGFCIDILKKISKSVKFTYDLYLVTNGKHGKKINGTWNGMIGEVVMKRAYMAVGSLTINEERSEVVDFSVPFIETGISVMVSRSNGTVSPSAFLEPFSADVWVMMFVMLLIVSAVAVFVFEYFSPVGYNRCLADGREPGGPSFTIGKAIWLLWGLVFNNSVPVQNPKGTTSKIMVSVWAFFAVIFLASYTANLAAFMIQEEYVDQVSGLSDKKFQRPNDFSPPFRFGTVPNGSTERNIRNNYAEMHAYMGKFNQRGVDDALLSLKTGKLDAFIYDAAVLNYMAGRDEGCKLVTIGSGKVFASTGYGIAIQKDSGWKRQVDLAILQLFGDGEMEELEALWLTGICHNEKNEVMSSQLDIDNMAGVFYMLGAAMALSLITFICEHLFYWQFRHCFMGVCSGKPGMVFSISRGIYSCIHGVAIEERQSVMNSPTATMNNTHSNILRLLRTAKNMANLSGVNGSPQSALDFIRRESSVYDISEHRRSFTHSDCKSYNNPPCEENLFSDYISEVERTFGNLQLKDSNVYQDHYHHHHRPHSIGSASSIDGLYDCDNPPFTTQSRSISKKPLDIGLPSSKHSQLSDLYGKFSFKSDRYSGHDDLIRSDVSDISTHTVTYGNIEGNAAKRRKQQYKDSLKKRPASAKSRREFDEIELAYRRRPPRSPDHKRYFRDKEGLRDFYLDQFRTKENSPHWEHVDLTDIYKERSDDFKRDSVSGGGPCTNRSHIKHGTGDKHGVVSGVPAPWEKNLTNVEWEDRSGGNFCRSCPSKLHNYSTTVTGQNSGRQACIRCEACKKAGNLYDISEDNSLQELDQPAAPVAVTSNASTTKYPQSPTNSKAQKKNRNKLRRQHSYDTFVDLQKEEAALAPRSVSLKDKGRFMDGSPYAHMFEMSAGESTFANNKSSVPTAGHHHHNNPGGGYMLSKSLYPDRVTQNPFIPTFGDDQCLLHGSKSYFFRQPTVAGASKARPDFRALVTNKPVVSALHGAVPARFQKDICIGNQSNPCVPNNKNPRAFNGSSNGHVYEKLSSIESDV
Chain of NMDAR2A (Q12879 23-1464, species assumed, other chains not shown): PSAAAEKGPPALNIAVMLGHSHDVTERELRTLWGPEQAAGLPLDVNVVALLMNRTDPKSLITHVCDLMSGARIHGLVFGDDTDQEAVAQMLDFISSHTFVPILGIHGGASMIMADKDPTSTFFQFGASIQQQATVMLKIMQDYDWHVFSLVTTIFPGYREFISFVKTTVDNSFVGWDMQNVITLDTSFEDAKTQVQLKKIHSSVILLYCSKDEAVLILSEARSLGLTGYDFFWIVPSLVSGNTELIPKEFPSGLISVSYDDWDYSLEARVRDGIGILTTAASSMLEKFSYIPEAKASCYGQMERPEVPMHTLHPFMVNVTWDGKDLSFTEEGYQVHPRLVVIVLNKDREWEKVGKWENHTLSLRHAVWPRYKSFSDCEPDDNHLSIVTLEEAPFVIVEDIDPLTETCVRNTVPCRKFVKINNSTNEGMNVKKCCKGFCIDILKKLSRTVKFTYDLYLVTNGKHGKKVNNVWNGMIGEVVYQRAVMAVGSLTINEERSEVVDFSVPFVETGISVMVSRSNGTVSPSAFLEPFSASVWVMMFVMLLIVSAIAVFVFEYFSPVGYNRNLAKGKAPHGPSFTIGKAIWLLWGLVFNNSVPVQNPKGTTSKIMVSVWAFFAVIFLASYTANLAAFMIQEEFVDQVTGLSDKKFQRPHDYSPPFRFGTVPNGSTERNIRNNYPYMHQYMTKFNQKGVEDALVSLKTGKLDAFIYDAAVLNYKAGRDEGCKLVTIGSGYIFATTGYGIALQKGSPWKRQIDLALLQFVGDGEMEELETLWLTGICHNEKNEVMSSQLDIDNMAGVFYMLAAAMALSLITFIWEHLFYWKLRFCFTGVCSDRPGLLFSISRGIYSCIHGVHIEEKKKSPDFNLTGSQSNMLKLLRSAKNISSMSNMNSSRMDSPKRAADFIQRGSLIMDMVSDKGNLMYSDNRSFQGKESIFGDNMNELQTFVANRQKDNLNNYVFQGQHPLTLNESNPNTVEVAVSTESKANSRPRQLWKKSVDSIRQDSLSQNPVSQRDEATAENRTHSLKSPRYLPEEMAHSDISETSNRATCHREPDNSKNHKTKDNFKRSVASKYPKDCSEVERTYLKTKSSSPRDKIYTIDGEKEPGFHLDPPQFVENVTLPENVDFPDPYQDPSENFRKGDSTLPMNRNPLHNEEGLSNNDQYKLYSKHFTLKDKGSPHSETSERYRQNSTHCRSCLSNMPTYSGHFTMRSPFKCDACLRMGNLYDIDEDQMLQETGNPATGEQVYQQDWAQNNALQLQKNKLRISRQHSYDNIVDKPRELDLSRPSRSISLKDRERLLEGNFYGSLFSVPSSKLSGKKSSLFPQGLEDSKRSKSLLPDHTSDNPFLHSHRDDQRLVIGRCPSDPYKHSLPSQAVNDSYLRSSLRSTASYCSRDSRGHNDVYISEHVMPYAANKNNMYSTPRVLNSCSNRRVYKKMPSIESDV

EC50 [3] | Conclusion ([4]; NMDAR2B binding profile) | % 1 mM Glycine ([4]; NMDAR2B binding profile) | potentiation of [3H]MK-801 binding, subtype preference in words ([4]; NR2B, FIG. 6) | Microsomal stability, percent remaining after 60 minutes [5] | Plasma stability, percent remaining after 60 minutes [6] | Plasma stability, percent remaining after 60 minutes [7] | EC50 ([4]; NMDAR2B binding profile, wild-type) | Compound | blast-induced cognitive deficits as measured by PEL [1] | positive emotional learning in the rat USVs test ([2]; rat, in vivo) | positive emotional learning as measured by rat USVs ([2]; administered one hour prior to PEL testing)
0.977 nM | WT2B agonist | 49.02% | highly NR2B and NR2D preferring | 87% | 100% | 89% | – | CC(C)CN1CCC[C@@]12CN([C@H](C(N)=O)[C@@H](C)O)C2=O [Compound B, (2S,3R)-3-hydroxy-2-((S)-5-isobutyl-1-oxo-2,5-diazaspiro[3.4]octan-2-yl)butanamide] | reversed blast-induced cognitive deficits | increases positive emotional learning | –
0.00457 nM | WT2B agonist | 68.22% | – | 86% | 100% | 92% | 3.09 nM | CC(C)CN1CCC[C@]12CN([C@H](C(N)=O)[C@@H](C)O)C2=O [Compound A, (2S,3R)-3-hydroxy-2-((R)-5-isobutyl-1-oxo-2,5-diazaspiro[3.4]octan-2-yl)butanamide] | reversed blast-induced cognitive deficits | – | increases positive emotional learning
